The values below come from patent US9051562B2, “Polypeptides isolated from brevibacterium aurantiacum and their use for the treatment of cancer” (Institut National de la Santé et de la Recherche Médicale …, priority 2011, dated 2015).

Assay [1] addresses Brevibacterium aurantiacum (ATCC 9175; formerly B. linens) methionine gamma-lyase MGL-BL929, recombinant, SEQ ID NO: 1 (Brevibacterium aurantiacum, UniProt A0A2H1K3G9). The note with it: for activity of the enzyme towards the substrate (in words): 25 mM of substrate; for activity of the enzyme towards the substrate (in words) / Vmax: pH 7.5, 25° C., 10 min; for Vmax: 100 mM K*PO4, 0.01 mM PLP.

Assay [2] has as its system HT29MTX cells. The experiment in a line: Growth inhibition of HT29MTX cells (Trypan blue dye exclusion), resistance to methotrexate. It counts as cell-based, human. The note with it: 1 μM methotrexate. The text has this:
Seven human tumor cell lines were used to determine the cellular effects of MGL-BL929. These comprise five adherent solid tumor-derived cell lines (including the colorectal carcinoma cell line HT29, two stable variants of HT29 selected for their high levels of resistance to methotrexate (HT29MTX), and to fluorouracil (HT29FUra), the ovarian carcinoma cell line SKOV3, and the hepatoblastoma-derived cell line (HepG2), and 2 non-adherent tumor cell lines (including the T-cell lymphoma cell line Jurkat, and the acute lymphocytic leukemia cell line Reh). Similarly, human non-tumor skin fibroblasts (CDGII) were exposed to MGL-BL929 at various concentrations in order to explore selectivity of MGL-BL929 towards cancer cells.
The cells lines were thawed from mycoplasma-free frozen stocks and were controlled for contamination. Cells were maintained in cell culture medium (RPMI 1640 or DMEM according to the growth requirements of each cell line), supplemented with 10% FBS and antibiotics (streptomycin, 50 μg/mL, and penicillin, 50 U/mL) at 37° in an atmosphere containing 5% CO2. Cells were exposed in 12 well-cell plates to the purified recombinant MGL-BL929 at a concentration range from 0.05 U/mL to 5 U/mL, and were harvested 24 hr., 48 hr., 72 hr., and 96 hr. from start of the exposure. Cell viability was measured with the Trypan blue dye exclusion test in Malassez chambers.

With `CSCC[C@@H](N)C(=O)O` [D-methionine], in assay [1], the “activity of the enzyme towards the substrate (in words)” value (from here on “activity”) is given as “no activity” and the Vmax is given as 0 μmol · min^−1 · m^−1.

With `CN(Cc1cnc2nc(N)nc(N)c2n1)c1ccc(C(=O)N[C@@H](CCC(=O)O)C(=O)O)cc1` [methotrexate], the “resistance of the cells to methotrexate (in words)” value in assay [2] is reported as “fully resistant”.

Take `N[C@@H](CS)C(=O)O` [L-Cysteine, L-cysteine]: in assay [1], the “activity” value is reported as “no activity” and the Vmax was 0 μmol · min^−1 · m^−1.

As for `CSCC[C@H](N)C(=O)O` [L-Methionine, L-methionine], the Vmax in assay [1] is reported as 5.77 ± 1.4 μmol · min^−1 · m^−1.

Regarding `N[C@@H](CCSC[C@H](N)C(=O)O)C(=O)O` [L-Cystathionine, L-cystathionine], in assay [1], the “activity” value is on record as “no activity” and the Vmax is listed as 0 μmol · min^−1 · m^−1.

Consider `N[C@@H](CCS)C(=O)O` [L-Homocysteine, L-homocysteine], for which, in assay [1], the Vmax was 27.7 ± 5.7 μmol · min^−1 · m^−1. Besides, the “Affinity relative to L-methionine (fold greater)” value in assay [1] (L-homocysteine compared with L-methionine) is listed as 7.3 fold.

Turning to `Nc1ncnc2c1ncn2[C@@H]1O[C@H](CSCC[C@H](N)C(=O)O)[C@@H](O)[C@H]1O` [S-Adenosyl L-homocysteine], in assay [1], the “activity” value was “no activity” and the Vmax came to 0 μmol · min^−1 · m^−1.
